Reference: publication PMC9138505, “Small Molecule 20S Proteasome Enhancer Regulates MYC Protein Stability and Exhibits Antitumor Activity in Multiple Myeloma” (Biomedicines, 2022)
“And” between values parts separate entries of the source, which are not always exact repeats. Equal values may be shown once. Read-outs that look alike come from different tables or passages of the source.

How the values were obtained:
[1] = system: proteasome, CT-L substrate Suc-LLVY-AMC, canine PBMC lysate; experiment: Proteasome activity in canine PBMC lysate (target engagement); type: in vivo; conditions: treated canines, 1920 mg BID
Description: Canine blood samples obtained in BD Vacutainer CPT mononuclear cell preparation tubes containing sodium citrate were used to isolate PBMCs. For PBMC isolation, sample tubes were inverted five times and equilibrated for the centrifuge with sterile PBS buffer. Tubes were centrifuged at 1800× g with the acceleration set at 5 and a break set to 0 at room temperature for 30 min. Half of the plasma layer was discarded. Using a sterile Pasteur pipette, the buffy coat was collected and put into a 15 mL conical tube and sterile PBS buffer was added to 10 mL. The conical tubes were centrifuged at 300× g for 10 min and the supernatant was removed. Cells were resuspended in 150 µL of lysis buffer (50 mM Tris-HCl, 2 mM Na2ATP, 5 mM MgCl2, 0.5 mM EDTA, 10% glycerol) and lysed by vortex. Samples were centrifuged for 20 min at 14,000× g. The total protein concentration of the supernatant was determined using bicinchoninic acid assay (BCA assay), and the samples were normalized to 1 mg/mL. Samples were diluted to 0.036 µg/µL in assay buffer (38 mM Tris, 100 mM NaCl, pH 7.8) and 140 µL of the diluted sample was added to three wells of a black, clear-bottom 96-well plate. Substrate stock solution (10 µL of 375 µM Suc-LLVY-AMC in assay buffer) was added to each well. Fluorescence was measured and kinetic readings were taken every 5 min at 37 °C, at 380/440 nm for 1 h.

[2] = system: primary human MM cells of newly diagnosed patient; experiment: Primary cell viability, CellTiter-Glo, 72 h
Description: (§1) White blood cells (WBCs) were separated from red blood cells by the Ficoll density gradient. Multiple myeloma cells were then isolated from WBCs using human CD138 affinity magnetic beads (Miltenyi Biotec; cat#130-093-062; Gaithersburg, MD, USA) following the manufacturer’s protocol. Cells were cryopreserved in 10% DMSO in FBS. Revived cells were maintained in an RPMI medium with 10% FBS for 10 days prior to treatment. […] Cells were equilibrated to RT and CellTiter-Glo (Promega; Madison, WI, USA) solution (100 μL) was added and incubated with shaking for 10 min at RT. The assay plate was then allowed to equilibrate for 5 min at RT and luminescent readings were taken on a SpectraMax® M5. Data are presented as a percentage of the vehicle control for each experimental condition, after background subtraction. Error bars represent SD for triplicate wells.

[3] = system: RPMI-8226 subcutaneous xenograft; experiment: RPMI-8226 xenograft tumor model
c-MYC = c-MYC degradation ELISA in H929 cells; type: cell-based, human; conditions: various concentrations, 4 h
Description: ELISA: c-MYC degradation in L363 and H929 cells. L363 cells were grown in T-25 flasks in RPMI-1640 medium supplemented with 15% heat-inactivated fetal bovine serum (FBS) and 1% penicillin/streptomycin at 37 °C and 5% CO2. H929 cells were grown in T-25 flasks in RPMI-1640 medium supplemented with 10% FBS, 0.05 mM 2-mercaptoethanol, and 1% penicillin/streptomycin. Cells were treated with DMSO, TCH-165, or bortezomib (BTZ) at the indicated concentrations for 4 h (0.1% final DMSO concentration). Following the 4-hour treatment, cells were pelleted, washed with chilled PBS buffer, and resuspended in chilled lysis buffer (10 mM Tris, 100 mM NaCl, 1 mM EDTA, 1 mM EGTA, 1 mM NaF, 20 mM Na4P2O7, 2 mM Na3VO4, 1% Triton X-100, 10% glycerol, 0.1% SDS, and 0.5% deoxycholate; pH 7.4) supplemented with Complete Mini Protease Inhibitor Cocktail (Sigma Aldrich). The lysate was clarified by centrifugation at 5000 rpm (4 °C) for 15 min. Total protein of the lysate was quantified by bicinchoninic acid assay (BCA assay, Thermofisher Scientific; Waltham, MA, USA). and normalized to 1.5 mg/mL total protein. The supplied protocol for the human c-MYC (Total) ELISA Kit (Invitrogen; Waltham, MA, USA) was used to determine the total c-MYC concentration of the lysates. Prior to loading lysate into ELISA plate wells, lysate (5 µL) was diluted into 45 µL of supplied standard diluent buffer.

[4] = system: primary cells from a BTZ refractory MM patient; experiment: Primary cell viability, CellTiter-Glo, 72 h; conditions: Homo sapiens
Description: as §1

[5] = system: human constitutive 20S proteasome; parameters: method as in PMID 29897236; conditions: i.e., 1000%; cited from earlier work
[6] = Pharmacokinetic assessment in CD-1 mice; type: in vivo; conditions: for Cmax / Tmax: po, 100 mg/kg
Description: The PK study was carried out with CD-1 mice (males, 6–8 weeks of age, n = 3 per treatment group) weighing between 24.9 g to 33.7 g immediately prior to dosing. TCH-165 (100 mg/kg) was administered by oral gavage, as a homogeneous suspension in a 3:7 (v/v) propylene glycol: 5% dextrose as a vehicle. A second dose of 100 mg/kg TCH-165 was administered approximately 8 h post-initial gavage. Blood was collected at 0.5 h, 1 h, 2 h, 4 h, 8 h, 9 h, 10 h, 12 h, and 16 h post-initial gavage in lithium heparin tubes. Plasma was separated by centrifugation and analyzed using mass spectrometry.

## CCOC(=O)[C@]1(c2ccccc2)N=C(c2ccc(OC)cc2)N(Cc2ccccc2)[C@@H]1c1ccc(NCc2ccccc2)cc1 [TCH-165]
[1]
  drug concentration by mass spectrometry: 1400 nM and 1100 nM
[2]
  CC50: 1 µM
[3]; 100 mg/kg bid oral gavage, after 42 days, p < 0.05
  reduction of tumor growth compared to vehicle control: 75.71% and 76%
[3]; SCID mice, 100 mg/kg bid oral
  loss of body weight: < 10%
[3]; after 42 days, TCH-165 100 mg/kg bid oral, bortezomib 0.375 reduced to 0.09 mg/kg i.v. 3X per week
  average tumor volume: 304.43 (±49.50) mm^3
c-MYC
  MYC clearance (percent MYC remaining): induced clearance of MYC
[4]
  CC50: 8.1 µM
[5]
  enhancement of 20S-mediated proteolysis: ~10 fold
[6]; male, CD-1, mouse, plasma, CD-1 mice, 100 mg/kg oral bid, second dose 8 h after the first, read-out: Cmax following the second dose
  Cmax: 1430 ± 625 nM
[6]; male, CD-1, mouse, plasma, CD-1 mice, 100 mg/kg oral bid, second dose 8 h after the first, read-out: Tmax following the second dose
  Tmax: 12 h
[6]; male, CD-1, mouse, plasma, CD-1 mice, 100 mg/kg oral gavage, plasma, read-out: Cmax following the first dose
  Cmax: 932 ± 184 nM
[6]; male, CD-1, mouse, plasma, CD-1 mice, 100 mg/kg oral gavage, read-out: Tmax following the first dose
  Tmax: 2 h
[6]; male, CD-1, mouse, plasma, mice, means, 100 mg/kg bid oral, read-out: AUC (nM) (0-16 for mice)
  AUC: 14 µM·h
[6]; male, mouse, plasma, CD-1 mice, 100 mg/kg oral bid, trapezoidal method, read-out: mean AUC (0–16 h)
  AUC(0-t): 14 µM·h
[6]; mouse PK study
  metabolic lability of the ester moiety (by LC-MS): not metabolically labile
